A value given as a limit tells only on which side of the number the result lay.

We go through 65 compounds from a melting point compilation (Tetko et al.; mined from patent text by program, amines drawn as free bases though some values may be those of a salt).

Consider `CCOCc1nc2c(N)nc3ccccc3c2n1CC1(O)CCN(C(=O)Nc2ccccc2)CC1`, for which the melting point (commonly the temperature, or range, at which the solid turns liquid) fell in the range of 184 to 186 °C.
Under `N#Cc1sc2ncccc2c1Cl` stands 144 to 145 °C; under `Cc1coc2c(c1=O)N(C)S(=O)(=O)c1ccccc1-2`, 214 to 216 °C.
The same measure for `CC(C)=CCN1CCC(=C2c3ccccc3CCn3ccnc32)CC1`: 127 °C; for `Cn1cnc2c(Cl)nccc21`: 127 to 131 °C; for `COc1ccc2nc3c(c(Cl)c2c1)C(=O)c1ccccc1-3`: 232 to 234 °C.
`Cc1cc(C)c(-n2ccc3c(Cl)nn(C)c(=O)c32)c(C)c1` displayed a melting point of 170 to 171 °C.
Compound `O=C1C=C(O)C(=O)c2cc(Br)ccc21` returned a melting point of 197 °C.
Compound `CCCn1nc2c(N)nc3ccccc3c2c1CCCc1cc(-c2cccnc2)no1` gave a melting point of 192 to 193 °C.
In turn, `CCCCCCCCOc1ccc(-c2ccc(-c3ccc4c(c3)C(CC)(CC)c3cc(-c5ccc(-c6ccc(OCCCCCCCC)cc6)cc5)ccc3-4)cc2)cc1` returned a melting point of 146 °C.
The same measure for `O=C(NCc1ccc(F)cc1)c1nc2n(c(=O)c1O)CCN2Cc1ccccc1`: 225 °C; for `Nc1nc(Cl)cc(NCC2(CO)CC(=O)C2)n1`: 171 to 173 °C.
Consider `COc1ccc(C2(CCN3CCC(c4nc5ccccc5s4)CC3)CCN(C(=O)c3ccccc3)C2)cc1OC` (stereo not given), for which the melting point fell in the range of 60 to 62 °C.
The compound `CCCc1c(OCc2ccccc2)ccc2c(=O)cc(CO)[nH]c12` registered a melting point of 197 to 199 °C.
The same measure for `Cn1ncc2nn(-c3cc(C(F)(F)F)ccc3F)c(=O)c(Cl)c21`: 177 to 182 °C; for `CN1CCN(CNc2nc(=O)n(CN3CCN(C)CC3)cc2F)CC1`: 165 to 166 °C.
Under `CC(C)c1cccc(C(C)C)c1NC(=O)NCC1(c2ccccc2)CC1` stands 138 to 142 °C; under `CCOC(=O)c1c(-c2ccccc2)nc2ccccn12`, 68 °C.
Regarding `CC(C)(C)OC(=O)NC[C@H]1C[C@H]1CON1C(=O)c2ccccc2C1=O` (relative stereo), the melting point fell in the range of 96 to 97 °C.
The same measure for `OC(Cc1nnn[nH]1)(Cn1cncn1)c1ccc(Cl)cc1Cl` (stereo not given): 214 to 215 °C.
The same measure for `CCC(C(C)C)C(CN)CC(=O)O` (stereo not given): 170 to 180 °C.
Under `Clc1ccc(COc2ccccc2C(=NOCc2ccccc2)n2ccnc2)cc1` stands 94 to 95.5 °C.
Take `CC(=O)Nc1nc(N)nc(-c2ccc(-c3ccccc3)cc2)n1`: the melting point is more than 260 °C.
The same measure for `CSc1ncncc1C(O)c1ccccc1F` (stereo not given): 176 to 177 °C; for `Nc1cc([N+](=O)[O-])ccc1Nc1cccc(-c2nccs2)c1`: 146 to 159 °C; for `C[C@@H](n1ncn(-c2ccc(-n3ccn(-c4ccc(OCC(F)(F)C(F)F)cc4)c3=O)cc2)c1=O)[C@](O)(Cn1cncn1)c1ccc(F)cc1F`: 181 to 183 °C.
The same measure for `c1ccc2c(c1)NC(C1CCCCC1)c1cccc3c1N2CC3` (stereo not given): 136 to 138 °C.
As to `CCCn1c(=O)c2[nH]c(/C=C/c3cc(C)c(OC)cc3C)nc2n(CCC)c1=O`, the melting point lay in the range of 268 to 269 °C.
The same measure for `COC(=O)c1cc(Cl)cc2c1OC(C)(C)C(=O)N2`: 178 to 179 °C.
Compound `Nc1nc2c(ncn2COCC(COC(=O)COc2ccccc2)OC(=O)COc2ccccc2)c(=O)[nH]1` (stereo not given) displayed a melting point of 95 to 100 °C.
Compound `CCOC(=O)C(=O)Nc1ncc(C)s1` gave a melting point of 166 to 168 °C.
Under `COC(=O)C(F)(F)CC(C)C1CCC2C3CC=C4CC(OC(C)=O)CCC4(C)C3CCC12C` (stereo not given) stands 132 °C.
Under `N#Cc1ccc(NC(=O)NCCCN2CCN(CCCc3ccc(Cl)cc3)CC2)cc1` stands 219 to 221 °C.
The same measure for `OCc1cc(C=CCN2Cc3ccccc3C2)ccc1O`: 177 to 178 °C.
Regarding `CCOC(=O)c1c(-c2ccccc2C)c2cc(C)c(Cl)cc2n(C)c1=O`, the melting point is 121 to 123 °C.
Turning to `c1ccc(-n2c(-c3cccc(OCCN4CCCCC4)c3)nc3ccccc32)cc1`, the melting point worked out at 68 °C.
The same measure for `CC(=O)OCC1OC(Oc2ncn(Cc3ccc([N+](=O)[O-])cc3)c2C(N)=O)C(OC(C)=O)C1OC(C)=O` (stereo not given): 156 °C; for `C[C@@H](n1cnc2cc(C(F)(F)F)ccc2c1=O)[C@](O)(Cn1cncn1)c1ccc(F)cc1F`: 142 to 143 °C.
Under `CN(C)C(CNc1c(C#N)cnn2cccc12)c1ccco1` (stereo not given) stands 107 °C.
Under `Cc1cc(-c2cccc([N+](=O)[O-])c2)c2ccccc2n1` stands 157 °C.
With `Nc1noc(C23CCCN(CC2)C3)n1` (stereo not given), the melting point fell in the range of 197 to 199 °C.
In turn, `Cc1cn([C@H]2CC[C@@H]3CC(=O)N[C@H]2C3)c(=O)n(COCc2ccccc2)c1=O` displayed a melting point of 160 to 162 °C.
In turn, `COc1cc(OS(=O)(=O)OC(F)(F)F)c2c(=O)c3ccc(Cl)cc3n(C)c2c1` gave a melting point of 234 to 236 °C.
Turning to `CCCCCCCCOC(=O)COc1cc(F)ccc1C(=O)NCc1cccc([N+](=O)[O-])c1`, the melting point was in the range of 72 to 74 °C.
Under `CCCCCCCCCCCCCCCC1CCCC(c2ccc(N)cc2)(c2ccc(N)cc2)C1` (stereo not given) stands 107 °C.
`CSC(=C[N+](=O)[O-])NCCCCc1ccccn1` showed a melting point of 78 °C.
The same measure for `CC(C)(C)c1cc(SC#N)cc(C(C)(C)C)c1O`: 61.5 to 63 °C; for `Cc1cccc(C(=O)N(C)C)c1N`: 95 to 96 °C.
Under `Cc1nc(N)nc(-c2cccc3ccccc23)c1C` stands 214 to 215 °C.
Under `C/C(=C\c1ccccc1)CNc1cccc(-c2ccnc3c(C(=O)c4cccs4)cnn23)c1` stands 74 to 76 °C; under `O=C(c1ccc(F)cc1)C1CCN(CCCn2c(=O)[nH]c3ccc(Cl)cc32)CC1`, 157 °C.
As to `O=C(CBr)Nc1ccc(I)cc1`, the melting point was found to be 185 °C.
Take `N=C(Nc1ccc2c(c1)CNCCO2)c1ccsc1`: the melting point is 150 to 152 °C.
Under `Cc1oc(NC(=O)CCl)c(C#N)c1C` stands 114 °C.
The same measure for `O=C(O)c1ccccc1Nc1ccc(I)cc1`: 205 to 206 °C; for `O=C1c2ccccc2C(=O)N1OCc1cc[nH]n1`: 166 to 168 °C; for `OC1(O)C(F)(F)CCCC1(Cl)Cl`: 30 °C.
Under `O=CC1(Nc2ccccc2)CCN(Cc2ccccc2)CC1` stands 118 to 119 °C.
In turn, `NNC(=O)c1c(OCC(F)(F)F)cccc1OCC(F)(F)F` yielded a melting point of 153 to 154 °C.
Turning to `CCO[C@H]1CCN(C(=O)c2cc(-c3ccccc3)c(=O)n3c2-c2cc(Cl)ccc2CC3)C1`, the melting point was in the range of 134 to 136 °C.
Under `CC(=O)OC1C(CO)OC(NC(=O)N(CCCl)N=O)C(OC(C)=O)C1OC(C)=O` (stereo not given) stands 143 to 144 °C.
As to `COc1ccc(-c2sc3cnccc3c2OC(C)=O)cc1`, the melting point is 141 to 142 °C.
Under `Cc1cc(C#N)nc(Oc2cc(C(F)(F)F)nn2C)c1` stands 88 °C; under `Cc1cccc(NC(=O)NC2CN(C(=O)C3CC3)c3ccccc3N(CC(=O)c3ccccc3C)C2=O)c1` (stereo not given), 207 to 209 °C; under `Cc1cc(N)c([N+](=O)[O-])cc1OC(F)F`, 73 to 74 °C.
